Data on 4 compounds can be found in ChEMBL document CHEMBL1124039, “Angiotensin-converting enzyme inhibitors. 2. Perhydroazepin-2-one derivatives” (J Med Chem, 1988).

The target of this experiment is T1, Angiotensin-converting enzyme (Oryctolagus cuniculus, UniProt P12822).
T1 sequence (P12822 whole entry): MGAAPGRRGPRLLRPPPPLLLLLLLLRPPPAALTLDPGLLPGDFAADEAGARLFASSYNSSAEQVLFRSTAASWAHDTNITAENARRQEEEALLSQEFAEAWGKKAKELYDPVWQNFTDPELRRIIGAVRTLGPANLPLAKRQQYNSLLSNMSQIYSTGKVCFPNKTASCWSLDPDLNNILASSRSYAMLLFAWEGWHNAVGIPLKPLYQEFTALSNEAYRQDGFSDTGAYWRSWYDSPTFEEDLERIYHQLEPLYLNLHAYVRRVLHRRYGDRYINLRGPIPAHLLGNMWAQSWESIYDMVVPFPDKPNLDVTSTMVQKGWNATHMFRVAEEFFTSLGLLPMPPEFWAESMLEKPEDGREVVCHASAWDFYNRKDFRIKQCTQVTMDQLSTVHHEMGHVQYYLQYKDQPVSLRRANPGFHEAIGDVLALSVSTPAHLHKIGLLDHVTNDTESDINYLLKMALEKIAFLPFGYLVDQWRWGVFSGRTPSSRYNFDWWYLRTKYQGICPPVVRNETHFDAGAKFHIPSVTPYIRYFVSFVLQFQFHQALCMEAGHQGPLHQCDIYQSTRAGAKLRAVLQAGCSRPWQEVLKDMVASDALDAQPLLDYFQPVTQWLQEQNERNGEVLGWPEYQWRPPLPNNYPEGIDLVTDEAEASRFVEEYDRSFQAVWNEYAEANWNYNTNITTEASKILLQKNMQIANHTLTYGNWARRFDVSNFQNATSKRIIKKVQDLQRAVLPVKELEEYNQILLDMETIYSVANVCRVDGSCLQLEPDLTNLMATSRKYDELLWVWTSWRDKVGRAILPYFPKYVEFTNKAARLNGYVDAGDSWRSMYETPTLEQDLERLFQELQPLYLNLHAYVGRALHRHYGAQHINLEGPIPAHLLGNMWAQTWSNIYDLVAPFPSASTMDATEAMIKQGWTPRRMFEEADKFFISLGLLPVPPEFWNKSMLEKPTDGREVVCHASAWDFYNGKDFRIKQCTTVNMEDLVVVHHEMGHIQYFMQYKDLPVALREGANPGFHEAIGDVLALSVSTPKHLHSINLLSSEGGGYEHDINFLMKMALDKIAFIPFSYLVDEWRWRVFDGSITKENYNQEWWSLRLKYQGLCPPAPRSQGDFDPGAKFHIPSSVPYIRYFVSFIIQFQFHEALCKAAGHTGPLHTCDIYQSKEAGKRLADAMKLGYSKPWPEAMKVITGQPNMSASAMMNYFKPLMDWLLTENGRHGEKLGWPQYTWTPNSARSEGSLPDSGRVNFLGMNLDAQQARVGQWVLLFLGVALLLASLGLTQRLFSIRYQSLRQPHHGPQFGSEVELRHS
Kind of experiment: Concentration required for 50% inhibition of rabbit lung Angiotensin I converting enzyme with 5 mM hippuryl-histidyl-leucine as substrate.

Turning to `O=C(O)CN1C(=O)[C@@H](N[C@@H](CCc2ccccc2)C(=O)O)CCC[C@H]1c1ccccc1`, the concentration for half-maximal inhibition (IC50) (in general, the midpoint of a concentration-inhibition curve) was 3.6 nM.

`O=C(O)CN1C(=O)[C@@H](N[C@@H](CCc2ccccc2)C(=O)O)CCC[C@@H]1c1ccccc1` returned an IC50 of 16.2 nM.

Turning to `O=C(O)CN1C[C@@H](c2ccccc2)CC[C@H](N[C@@H](CCc2ccccc2)C(=O)O)C1=O`, the concentration for half-maximal inhibition (IC50) came to 3.1 nM.

`O=C(O)CN1C[C@H](c2ccccc2)CC[C@H](N[C@@H](CCc2ccccc2)C(=O)O)C1=O`: the half-maximal inhibitory concentration (IC50) stood at 4.3 nM. This IC50 and that of the compound before are within 1.5-fold of each other.
